Measured values taken from paper PMC5855688, “BC-Box Motif-Mediated Neuronal Differentiation of Somatic Stem Cells” (International Journal of Molecular Sciences, 2018).

Tests used:
[1] = tested on: skin-derived precursors (SKPs); assay: Neurite outgrowth / morphological evaluation of neuronal differentiation; assay type: cell-based, rat (neonate Wistar); conditions: for Morphological change: phase-contrast microscopy, Figure 1E
Experimental: (§1) Rodent skin-derived precursor cells (SKPs), which can differentiate to neurons, were used. SKPs were previously isolated from the back dermis of neonate Wistar rats by the authors. These cells were cultured in growth medium composed of DMEM/F12 (1:1; Gibco, Grand Island, NY, USA) containing 2% B27 supplement (Gibco), 20 ng/mL epidermal growth factor (EGF; Upstate Biotechnology, Lake Placid, NY, USA), and 40 ng/mL bFGF (PeproTech EC Ltd., Rocky Hill, NJ, USA) in a humidified incubator at 37 °C with 5% CO2. The floating clusters of cultured cells were centrifuged and dissociated into a single-cell suspension by use of a Pasteur pipette with a flame-polished tip. These single cells were then re-suspended into at a concentration of 50,000 cells/mL for passage or experiments.
(§2) For neuronal differentiation, cells were dissociated into a single-cell suspension by use of a Pasteur pipette and re-suspended into a concentration of 50,000 cells/mL in DMEM/F12 without serum, neurotrophic factors or growth factors. Then, the cells were cultured on poly-L-lysine-coated dishes or cover glasses, and the synthesized peptides at concentrations from 1 to 5 μM were added to the culture medium and delivered into the cells. Three days or more later, the cells were used for morphological, immunocytochemical, immunohistochemical, electrophysiological and immunoprecipitation studies, as well as for Western blot analysis.
Neurite outgrowth with length exceeding the diameter of the neuronal soma is often assessed as a morphological index of neuronal differentiation. After a single-cell suspension was made by pipetting, the cells were cultured in DMEN/F12 medium alone at 37 °C in a 5% CO2 incubator. Thereafter, neurite outgrowth was evaluated with the following 4 levels: +++, for above 50% of the cells showing neurite outgrowth; ++, for 20–50% with neurite outgrowth; +, for 5–19% having neurite outgrowth; and −, for below 5% of the cells with neurite outgrowth.

elongin C = assay: Immunoprecipitation with anti-elongin C, immunoblot anti-FITC; assay type: binding, rat; conditions: FITC-conjugated peptides, Figure 3C, difference p < 0.001
Experimental: as §2
Cultured cells (1 × 10^6) were washed with ice-cold PBS and lysed in RIPA lysis buffer (Upstate, Charlottesville, VA, USA). The total protein was extracted from the cells, and the total protein concentration of each lysate was adjusted to 1 mg/mL. The lysates were immunoprecipitated with anti- elongin C antibody (Santa Cruz, San Diego, CA, USA) diluted at 1:500 by using μMACS Protein A Microbeads (Miltenyi Biotec, Bergisch Gladbach, Germany). The immunoprecipitates were analyzed by SDS/gradient polyacrylamide gel and Western blotting with anti-FITC antibody (Santa Cruz, San Diego, CA, USA) diluted 1:500. Immunolabeled bands were detected by using enhanced chemiluminescence reagents (Amersham Biosciences Corp., Piscataway, NJ, USA). Images were analyzed with LAS-1000 (Fujifilm), and the density of the bands was determined by using Image Gauge software (Fujifilm).

[2] = tested on: skin-derived precursors (SKPs); assay: Western blot analysis of neuronal markers in NDD peptide-treated cells; assay type: cell-based, rat (neonate Wistar); conditions: Figure 6A; for Expression of GAD: glutamic acid decarboxylase; for Expression of ChAT: choline acetyltransferase; for Expression of TH: tyrosine hydroxylase
Experimental: as §1, §2
(§3) Cultured cells were washed 3 times in cold PBS and then scraped into ice-cold PBS. After incubation on ice for 10 min, the cells were lysed with lysis buffer and centrifuged, after which the supernatants were collected. Each sample was separated by SDS-PAGE under reducing conditions and transferred electrophoretically to nitrocellulose filters. Non-specific binding of antibody was blocked by incubation with 5% donkey serum for 1 h. Western blots were probed with anti-MAP2 antibody, anti-NFH antibody, anti-ChAT antibody, anti-GAD antibody, anti-rhodopsin antibody, anti-TH antibody, and anti-elongin C antibody (Santa Cruz, San Diego, CA, USA) followed by horseradish peroxidase-conjugated secondary antibodies. Protein bands were detected by using a chemical luminescence detection system (ECL Plus Western Blotting Reagent Pack, Amersham, Hemel Hempstead, UK). Images were analyzed with LAS-1000 (Fujifilm, Tokyo, Japan), and the density of the bands was determined by using Image Gauge software (Fujifilm).

[3] = tested on: skin-derived precursors (SKPs); assay: Immunocytochemistry of neuronal markers in NDD peptide-treated cells; assay type: cell-based, rat (neonate Wistar); conditions: Figure 6B
Experimental: as §1, §2
(§4) Cultured cells were fixed with 4% paraformaldehyde in PBS (Phosphate buffered saline) for 10 min at room temperature. Cells were incubated for 1 h at room temperature with primary antibodies. Antibodies against anti-MAP2 antibody (Sigma-Aldrich, St. Louis, MO, USA), anti-Neurofilment-H (NFH) antibody (Sigma-Aldrich), anti-NeuN antibody (Merk Millipore, Billerica, MA, USA), anti-GFAP antibody (DAKO, Santa Clara, CA, USA), anti-tyrosine hydroxylase (TH) antibody (Merk Millipore, Billerica, MA, USA), anti-choline acetyl transferase (ChAT) antibody (Abbiotec, San Diego, CA, USA), anti-glutamic acid decaboxylase (GAD) antibody (Enzo Life Sciences, Flamingdale, NY, USA), and anti-rhodopsin antibody (Santa Cruz, San Diego, CA, USA) were used. After incubation with primary antibody, the cells were incubated for 1 h with secondary antibody, either rhodamine-conjugated anti-mouse IgG (Sigma-Aldrich) or FITC-conjugated anti-rabbit IgG (Sigma-Aldrich). Nuclear counterstaining was done with DAPI (Molecular Probes, Eugene, OR, USA) or TO-PRO-3 (Molecular Probes), and observations were made with a fluorescence microscope system (FV300, Olympus, Tokyo, Japan). We counted the number of immuno-positive cells with a given antibody in 4 to 6 random non-overlapping visual fields (50–200 cells per field) in each experiment. At least 2 experiments were performed per condition. The degree of positivity was expressed as the rate of immuno-positive cells to the total number of nuclei stained with DAP1 or TO-PRO-3.

[4] = tested on: skin-derived precursors (SKPs); assay: Immunocytochemistry with anti-Neurofilament-H (NFH) antibody; assay type: cell-based, rat (neonate Wistar); conditions: ten divided pVHL sequences compared, Figure 1C; peptides at 1 to 5 μM
Experimental: as §1, §2
as §4, with “After incubation with primary antibody, the cells were incubated for 1 h with secondary antibody, either rhodamine-conjugated anti-mouse IgG (Sigma-Aldrich) or FITC-conjugated anti-rabbit IgG (Sigma-Aldrich).” left out, “At least 2 experiments were performed per condition.” left out

[5] = tested on: skin-derived precursors (SKPs); assay: Western blot analysis of NFH protein; assay type: cell-based, rat (neonate Wistar); conditions: ten divided pVHL sequences compared, Figure 1B, peptides at 1 to 5 μM
Experimental: as §1, §2, §3

[6] = BC-box motif alone (10-residue) peptides, delivered with TAT PTD, 1 to 5 μM
[7] = BC-box motif plus five C-terminal amino acids peptides, delivered with TAT PTD, 1 to 5 μM

YARAAARQARA SLQYICRAVI [SOCS5 BC-box motif alone]
Neurite Outgrowth Activity [1, 6]: + (5–19% having neurite outgrowth)

YARAAARQARATLQHLCRKTV [SOCS3 BC-box motif alone]
Neurite Outgrowth Activity [1, 6]: - (below 5% of the cells with neurite outgrowth)

YARAAARQARASLQHICRTVI [SOCS4 BC-box motif alone]
Neurite Outgrowth Activity [1, 6]: - (below 5% of the cells with neurite outgrowth)

YARAAARQARASLQHLCRFRI [SOCS7 BC-box motif alone]
Neurite Outgrowth Activity [1, 6]: + (5–19% having neurite outgrowth)

YARAAARQARATLKERCLQVVRSLVK [FITC-VHL(157–171), FITC-tagged VHL(157–171) peptide]
Binding to elongin C (FITC band after anti-elongin C immunoprecipitation) (elongin C): A distinct band for FITC
Binding to elongin C (FITC band after anti-elongin C immunoprecipitation) (elongin C; listed as FITC-conjugated VHL(157–171)): distinctly bound to elongin C

YARAAARQARATLLESSARTILHNRI [LRR-1 BC-box motif plus five amino acids]
Neurite Outgrowth Activity [1, 7]: ++ (20–50% with neurite outgrowth)
Expression of GAD [2]: expressed highly
Rate of GAD-positive (GABAnergic neuron-like) cells [3]: high rates of positive cells
Rate of TH-positive (dopaminergic neuron-like) cells [3]: high rates of positive cells

YARAAARQARATLLESSARTI [LRR-1 BC-box motif alone]
Neurite Outgrowth Activity [1, 6]: - (below 5% of the cells with neurite outgrowth)

YARAAARQARATLQHFCRLAI [SOCS2 BC-box motif alone]
Neurite Outgrowth Activity [1, 6]: - (below 5% of the cells with neurite outgrowth)

YARAAARQARATLKERCLQVVRS [FITC-VHL(157–168), FITC-tagged VHL(157–168) peptide]
Binding to elongin C (FITC band after anti-elongin C immunoprecipitation) (elongin C): a faint band for FITC
Binding to elongin C (FITC band after anti-elongin C immunoprecipitation) (elongin C; listed as FITC-conjugated VHL(157–168)): significantly less did

YARAAARQARASLQHLCRFRIRQLVR [SOCS7 BC-box motif plus five amino acids]
Neurite Outgrowth Activity [1, 7]: +++ (above 50% of the cells showing neurite outgrowth)
Expression of ChAT [2]: high
Expression of TH [2]: pronounced
Rate of ChAT-positive (cholinergic neuron-like) cells [3]: high rates of positive cells

YARAAARQARASLTHLCRLEIRSSIK [ASB3 BC-box motif plus five amino acids]
Rate of GAD-positive (GABAnergic neuron-like) cells [3]: high rates of positive cells
Rate of TH-positive (dopaminergic neuron-like) cells [3]: high rates of positive cells

YARAAARQARAMPRRAENWDEAEV [VHL(1–13), pVHL fragment conjugated with PTD]
Morphological change ([1]; peptides at 1 to 5 μM): no morphological change

YARAAARQARASLQYLCRFVI [SOCS6 BC-box motif alone]
Neurite Outgrowth Activity [1, 6]: - (below 5% of the cells with neurite outgrowth)

YARAAARQARAVYTLKERCLQVVRSLVK [VHL(155–171), pVHL fragment conjugated with PTD]
Morphological change ([1]; peptides at 1 to 5 μM): assumed a neuron-like morphology
Rate of cells having neurites ([1]; ten divided pVHL sequences compared, Figure 1D, peptides at 1 to 5 μM, three days or more): greatest rate
Rate of immunoreactivity for Neurofilament-H (NFH) [4]: greatest rate of immunoreactivity
NFH protein expression [5]: greatest expression

YARAAARQARASLKHLCRKALRSFLT [WSB2 BC-box motif plus five amino acids]
Neurite Outgrowth Activity [1, 7]: ++ (20–50% with neurite outgrowth)
Expression of ChAT [2]: moderate
Expression of GAD [2]: expressed highly
Expression of TH [2]: moderate
Rate of GAD-positive (GABAnergic neuron-like) cells [3]: high rates of positive cells
Rate of TH-positive (dopaminergic neuron-like) cells [3]: high rates of positive cells

YARAAARQARASLQHICRTVICNCTT [SOCS4 BC-box motif plus five amino acids]
Neurite Outgrowth Activity [1, 7]: ++ (20–50% with neurite outgrowth)
Expression of rhodopsin [2]: moderate
Expression of GAD [2]: expressed highly

YARAAARQARASLQYICRAVICRCTT [SOCS5 BC-box motif plus five amino acids]
Neurite Outgrowth Activity [1, 7]: +++ (above 50% of the cells showing neurite outgrowth)
Expression of rhodopsin [2]: highly expressed
Rate of TH-positive (dopaminergic neuron-like) cells [3]: high rates of positive cells
Rate of rhodopsin-positive cells [3]: high rates of positive cells

YARAAARQARATLQHLCRKTVNGHLD [SOCS3 BC-box motif plus five amino acids]
Neurite Outgrowth Activity [1, 7]: ++ (20–50% with neurite outgrowth)
Expression of TH [2]: moderate
Rate of GAD-positive (GABAnergic neuron-like) cells [3]: high rates of positive cells

YARAAARQARA TLKERCLQVV [VHL(157–166), pVHL BC-box motif alone, conjugated with PTD]
Neurite Outgrowth Activity [1, 6]: - (below 5% of the cells with neurite outgrowth)
Neurite Outgrowth Activity ([1]; Figure 2A, rates of cells having neurites, peptides at 1 to 5 μM, VHL157–168 vs VHL(157–171) p < 0.005): scarcely did

YARAAARQARASLQYLCRFVIRQYTR [SOCS6 BC-box motif plus five amino acids]
Neurite Outgrowth Activity [1, 7]: ++ (20–50% with neurite outgrowth)
Expression of TH [2]: moderate
Rate of TH-positive (dopaminergic neuron-like) cells [3]: high rates of positive cells

YARAAARQARAPLQELCRQRIVAAVG [SOCS1 BC-box motif plus five amino acids]
Neurite Outgrowth Activity [1, 7]: ++ (20–50% with neurite outgrowth)
Expression of ChAT [2]: moderate
Expression of TH [2]: moderate

YARAAARQARA PLQELCRQRI [SOCS1 BC-box motif alone]
Neurite Outgrowth Activity [1, 6]: - (below 5% of the cells with neurite outgrowth)

YARAAARQARATLQHFCRLAINKCT G [SOCS2 BC-box motif plus five amino acids]
Neurite Outgrowth Activity [1, 7]: + (5–19% having neurite outgrowth)
Expression of rhodopsin [2]: moderate
Expression of GAD [2]: expressed highly

YARAAARQARA SLKHLCRKAL [WSB2 BC-box motif alone]
Neurite Outgrowth Activity [1, 6]: - (below 5% of the cells with neurite outgrowth)
